Marks after values point to notes of the source that are not given here.
Legend:
male C57BL/6 mice [1] = experiment: Fertility of male mice on a metabolic syndrome model; assay type: in vivo, mouse
Experimental: Metabolic disorders were simulated as follows: on Day 2 after birth, male C57Bl/6 mice were injected with streptozotocin at a dose of 200 mg/kg, once, subcutaneously in the withers area, and the volume of the injected solution was 30 μl. From week 4 after birth, the animals were transferred to a high-fat diet. For this purpose, the used feed was enriched with heavy saturated fats (30% fat) (Siff EF R/M with 30% Fat Cat No. E15116-34, Germany). The animals were held on the high-fat diet for 42 days (from Day 28 to Day 70 of the study). Treamid was administered at a dose of 10 mg/kg intragastrically once daily, every day from Day 49 to Day 80 of the experiment. The control animals received the equivalent volume of a solvent, instead of the test compound.
The fertility of the males was estimated as follows: intact females were placed to the males of the experimental groups in a ratio of 1:2 for a period of from Day 70 to Day 80 of the study. During this period, the males of the experimental group continued to be administered intragastrically Treamid once daily at a dose of 10 mg/kg.
At the end of the mating period, on Day 80 of the study, the males were euthanized in a CO2 chamber. The blood of the animals was taken and analyzed for serum levels of free testosterone by enzyme immunoassay. Euthanasia was performed in the morning hours from 9:30 to 11:00.
The females were sacrificed in the CO2 chamber on Day 18 of pregnancy. The fetuses in the uterus were examined. The fertility index (FI) was calculated to assess fertility: FI=number of fertilized females/number of females placed with males×100%.

male C57BL/6 mice [2] = experiment: Streptozotocin-induced pancreatic lesion model; assay type: in vivo, mouse; conditions: Day 28; Treamid 1 mg/kg
male rats = assay type: in vivo, rat; conditions: Day 65
Experimental: The latter was simulated by a single injection of cytostatic drug Paclitaxel (Mitotax, Dr. Reddy's, India) to male rats (3 months of age). The choice of the drug was due to the fact that it is one of the medications that damage the precursors of spermatogenesis—stem cells.
Paclitaxel was administered to the animals of the control and test groups once intravenously at the maximum tolerated dose of 7.6 mg/kg. Treamid was administered to the animals of the experimental groups intragastrically at a dose of 5 mg/kg in the form of a suspension in 2% starch mucus for 15 days a month after the administration of Paclitaxel. The control animals received an equivalent volume of the solvent (2% starch mucus), instead of the test compound.
The colony-stimulating activity of the cells of the microenvironment of spermatogenic tissue (production of humoral regulators of spermatogenesis by Sertoli cells) was determined as follows. The above-described procedure was used to prepare a testis homogenate from which an adherent fraction of cells was isolated. The adherent cells were cultured for 24 hours in complete culture medium at 37° C., 5% CO2 and 100% air humidity. A day later, the supernatant was collected, which was stored at a temperature of […]. The level of humoral factors of spermatogenesis in the supernatant was tested by the test system of CFU-Sp of the testes of intact rats. […]

male Wistar rats = experiment: Pair-test of sexual behavior, copulatory activity reduced by Synestrol; assay type: in vivo, rat
Experimental: Reduction of copulatory activity caused by androgen deficiency was simulated by administration of Synestrol to male rats.
The model is based on the antagonism of androgenic and estrogenic hormones. The administration of Synestrol to male rats leads to the suppression of the sexual activity in animals.
Experiments were performed on 36 male Wistar rats (3 months of age). For 30 days after the beginning of the experiment, all male rats (except for the intact group (background)) were intramuscularly injected with Synestrol at a dose of 50 U/kg/day. Further, from Day 31 to Day 45 of the experiment, animals of the experimental groups, in addition to Synestrol, were intraperitoneally administered Treamid at a dose of 1.5 mg/kg and reference preparation Tribestan at a dose of 70 mg/kg. The sexual activity was estimated by the pair-test of sexual behavior. For this purpose, female rats in the estrus stage caused by a preliminary 4-fold injection of Synestrol were involved in the experiment. The effectiveness of Treamid was estimated by the following indices: latency until the first mating attempt (LFM), the number of mating attempts (mounts), and the number of ejaculations. The obtained data were compared with those of the same animals before the experiment (the first test) and with the data in the control group (the second test).

Wistar rats = experiment: Pair-test of sexual behavior, rats of late reproductive (14 months) and presenile (19 months) age; assay type: in vivo, rat; conditions: for EN (the number of ejaculations) / LFM (latency until the first mount) / MN (the number of mounts): 14-month rats
Experimental: Erectile dysfunction was simulated by using animals of late and senile reproductive age (14-19 months). Suppression of sexual motivation was simulated by using animals of late reproductive age (14 months).
Experiments on studying the effect of Treamid on copulatory activity were carried out on 76 Wistar rats (14 months and 19 months of age). Treamid was administered intragastrically for 14 days at a dose of 5 mg/kg. Reference drug Sildenafil (100 mg, PFIZER PGM, France) was also administered intragastrically, which corresponded to clinical use, at a dose of 3 mg/kg twice a week. The sexual activity was estimated by the pair-test of sexual behavior. For this purpose female rats in the estrus stage caused by a preliminary 4-fold injection of the Synestrel were involved in the experiment. The effectiveness of Treamid was estimated by the following indices: latency until the first mating attempt (LFM), the number of mating attempts (MN), and the number of ejaculations (EN). The obtained data were compared with those of the same animals before the administration of Treamid (the first test) and with the data in the control group (the second test).

[3] = First test, Synestrol-treated rats
[4] = Second test, Treamid 1.5 mg/kg or Tribestan 70 mg/kg intraperitoneally Day 31-45
[5] = First test, before administration of drugs
[6] = Second test, after 14-day administration course, Treamid 5 mg/kg, Sildenafil 3 mg/kg
[7] = 19-month rats, First test (before administration of drugs)
[8] = 19-month rats, Second test (after 14-day administration course), Treamid 5.0 mg/kg

For O=C(CCCC(=O)NCCc1ncc[nH]1)NCCc1ncc[nH]1 [Treamid], the “increase of free testosterone in the blood serum in comparison with intact animals” value (male C57BL/6 mice [1]; 10 mg/kg, Day 80) was 16%, the “increase of free testosterone in the blood serum in comparison with the pathological control” value (male C57BL/6 mice [1]; 10 mg/kg, Day 80) was 2 times and the “Free testosterone in the blood serum (pg/ml)” value (male C57BL/6 mice [1]; Day 80, Treamid 10 mg/kg intragastrically Day 49-80) was 3.46 ± 1.87*• pg/ml. The “fertility index relative to untreated metabolic disorders (pathological control)” value (male C57BL/6 mice [1]; Treamid 10 mg/kg Day 49-80) was 1.8 times, the “Fertility index, %” value (male C57BL/6 mice [1]; mating Day 70-80, Treamid 10 mg/kg Day 49-80) was 55*• % and the “Total collagen (mg/ml) in the pancreas” value (male C57BL/6 mice [2]) was 41 ± 4 mg/mL. The “Type I collagen (ng/ml) in the pancreas” value (male C57BL/6 mice [2]) was 665 ± 55*• ng/ml, the “increase of the secretory activity of the microenvironment cells compared to the control” value (male rats) was 80% and the “Ejaculating animals, %” value (male Wistar rats; [3]) was 0.00%#. For the same compound, the “LFM” value (male Wistar rats; [3]) was 373.89 ± 112.89 s, the “The number of mounts, abs.” value (male Wistar rats; [3]) was 5.89 ± 1.91 abs and the “LFM” value (male Wistar rats; [4]) was 381.22 ± 115.18 s. For the same compound, the “The number of mounts, abs.” value (male Wistar rats; [4]) was 8.00 ± 3.12 abs, the “EN (the number of ejaculations)” value (Wistar rats; [5]) was 0.00 ± 0.00 and the “LFM (latency until the first mount)” value (Wistar rats; [5]) was 559.08 ± 93.55. The “MN (the number of mounts)” value (Wistar rats; [5]) was 1.42 ± 0.50, the “EN (the number of ejaculations)” value (Wistar rats; [6]) was 0.60 ± 0.22⋄* and the “MN (the number of mounts)” value (Wistar rats; [6]) was 6.90 ± 1.88⋄. The “LFM (latency until the first mount)” value (Wistar rats; Second test, after 14-day administration course, Treamid 5 mg/kg, Sildenafil 3 mg/kg intragastrically) was 364.80 ± 127.66, the “EN (abs.)” value (Wistar rats; [7]) was 0.00 ± 0.00 abs and the “LFM” value (Wistar rats; [7]) was 310.27 ± 94.59 s. The “MN (abs.)” value (Wistar rats; [7]) was 4.27 ± 1.04 abs, the EN (Wistar rats; [8]) was 0.20 ± 0.13⋄* and the “LFM” value (Wistar rats; [8]) was 297.20 ± 117.04 s. For the same compound, the “MN (abs.)” value (Wistar rats; [8]) was 7.90 ± 1.45⋄ abs.
